Where two headings read alike, the source gives them in different places.
Legend:
[1] = system: CCRF-CEM cells; test: Cell viability study (trypan blue, Cellometer); format: cell-based, human; settings: 10 µM, 24 h incubation
Protocol: Cell viability study was performed to analyze the effect of FAM, 23, and 24 on the live cells. The CCRF-CEM cells were incubated with 10 µM of the compounds and mixed with trypan blue (0.1%) to color the dead cells. The percentage of viability was calculated by using Cellometer Auto T.4 (Nexcelom Bioscience). It was observed that at least 80% of the cells were viable in the presence of the compounds in a 24 h incubation period (Supporting Materials, Figure S1).
(§1) Human T lymphoblastoid cells (CCRF-CEM, ATCC No. CCL-119) were grown to 70% confluency in a culture medium. CCRF-CEM cells were incubated with 10 µM of the compounds and mixed with trypan blue (0.1%) to color the dead cells. The percentage of viability was calculated by using a Cellometer Auto T.4 (Nexcelom Bioscience). The cell viability against the vaginal cells (VK-2/E6E7) was conducted according to the previously reported procedure. The effect of conjugates on the sperm viability and mobility was evaluated as described previously.

[2] = system: CCRF-CEM cells; test: Real-time fluorescence microscopy in live cells; format: cell-based, human; settings: 10 µM, 1 h
Protocol: Cells incubated with 10 µM of DMSO, FAM, 23 and 24 for 1 h were used for real time fluorescence microscopy using transmitted light microscopy equipped with a differential-interference contrast method and an Achroplan 40× objective.
The products were purified on a Phenomenex®Gemini 10 µm ODS reversed-phase column (2.1 × 25 cm) with a Hitachi HPLC system using a gradient increment in the acetonitrile (0.1%TFA) concentration from 0 to 100% in 45 min at a constant flow rate of 17 mL/min. The purity of the compounds was confirmed by using an analytical Hitachi analytical HPLC system on a C18 column (Grace Allsphere ODS 2–3 µ, 150 × 4.6 mm) using a gradient system (water:acetonitrile 30:70 v/v) at a constant flow rate of 1 mL/min with a UV detection at 265 nm. The chemical structures of the final products were characterized by nuclear magnetic resonance spectrometry (^1H NMR and ^13C NMR) determined on a Bruker NMR spectrometer (400 MHz, Daltonik, Bremen, Germany) and confirmed by a high-resolution PE Applied Biosystems Mariner API time-of-flight electrospray mass spectrometer (Waltham, MA, USA). Chemical shifts are reported in parts per millions (ppm). For cellular uptake studies, cells were analyzed by flow cytometry (FACSCalibur: Becton Dickinson, San Jose, CA, USA) using the FITC channel and CellQuest software 7.5.3 (Becton Dickinson, San Jose, CA, USA). […]

[3] = system: HIV-infected T4 lymphocytes; parameters: method as in PMID 9191015; settings: read-out: EC50 against HIV-infected T4 lymphocytes; cited from earlier work
[4] = Cytotoxicity assay (MTS); format: cell-based; settings: human, HeLa cells (ATCC CCL-2.1)
[5] = system: cell-associated HIV-1 IIIB (infected SulT1 cells); test: Cell-associated transmission assay (IIIB); format: cell-based; settings: Human immunodeficiency virus 1, IIIB
Protocol: (§2) Anti-HIV activities of the compounds were evaluated according to the previously reported procedure. In summary, the HeLa (Human cervical carcinoma: ATCC CCL-2.1) cell line was used to measure the inactivation of both the cell-free virus preparations and virus-infected cell preparations. The cells were plated in culture plates 24 h prior to each experiment. Cell-free viral preparations of HIV-1 strains IIIB (lymphocytotropic strain) and BaL (monocytotropic strain) were used for the cell-free assay. For the cell-associated assay, the SulT1 cells were infected with IIIB virus 5 days prior to the experiment. Cell-free virus and virus-infected cells were mixed with different compounds and diluted to make different concentrations. The mixture was further diluted with the buffer and added to the HeLa cells.

[6] = system: HIV-1 strain IIIB (lymphocytotropic strain); test: Single-round infection assay, cell-free X4 virus (lymphocytotropic strain); format: cell-based
Protocol: as §2

[7] = system: sperm; test: Spermicidal activity (sperm viability and motility); format: cell-based; settings: abstract; versus N-9 positive control
Protocol: In this study, several fatty acyl conjugates of nucleosides (5–8, 10–12, 15, and 16) were tested for their spermicidal activities. […] Detailed data analysis is available in the Supplementary Materials (Figure S2).
as §1

[8] = system: human vaginal cells (VK-2/E6E7); test: Vaginal cell cytotoxicity (MTS assay); format: cell-based; settings: 6 h incubation; 31-1000 µg/mL
Protocol: A commercially used spermicidal agent (N-9) and conjugate cytotoxicity was evaluated using immortalized human vaginal cells (VK-2/E6E7). […] Observed cytotoxicity from N-9 could be correlated with the generation of higher levels of cytokines by N-9.
as §1
Figure 2 (A) Dose–response curves of the vaginal cytotoxicity in VK-2 cells (MTS assay) for 5, 6, 8, and N-9 after 6 h incubations. (B) Proinflammatory cytokine (IL-1α) production in the VK-2 cells (ELISA) after a 6 h incubation in the presence of 5, 6, 8, and N-9.

[9] = system: HIV-1 strain BaL (monocytotropic strain); test: Single-round infection assay, cell-free R5 virus (monocytotropic strain); format: cell-based; settings: Human immunodeficiency virus 1, BAL
Protocol: as §2

[10] = system: HIV-1; test: Anti-HIV activity overall (cell-free and cell-associated assays) and antiviral index; format: cell-based; settings: for antiviral index, times better than AZT: versus AZT; for antiviral index, times better than FLT: versus FLT
From the text: Table 2, Table 3 and Table 4 illustrate the anti-HIV-1 activities against the cell-free, cell-associated, and multidrug-resistant virus and sperm inhibiting properties of the selected compounds. In summary, the anti-HIV activity of 5′-substituted derivatives of FLT and AZT (5–18) was dependent on the nature of the 5′-substituent. […] None of the other esters were active against cell-associated virus. […] The difference in the activity of fatty acyl derivatives of FLT compared to each other and FLT may be due to their differences in the rate of uptake and intracellular hydrolysis.
By design, the ester moiety in the conjugates needs to be hydrolyzed to render parent nucleosides and fatty acids to produce anti-HIV activity. The anti-HIV activities of 5′-O-ether substituted FLT and AZT (3 and 4, Scheme 2) with a stable tetradecanyl (myristyl) group were compared with hydrolyzable 5′-O-ester substituted FLT and AZT (6 and 7).
as §2

[11] = system: HIV-1 4755-5 MDR (B-MDR); test: PBMC multi-round infection assay, resistant isolate 4755-5; format: cell-based
Protocol: (§3) Based on a preliminary screening, conjugates 5 and 8 were evaluated for their ability to inhibit a drug-resistant virus in a peripheral blood mononuclear cell (PBMC) assay. In this assay, FLT, 5, and 8 were tested against B- and C-wild type and A-17 and 4755–5 multidrug-resistant (MDR) clinical isolates of HIV-1, where compounds were incubated with PBMCs for 6 h and then washed off before the addition of the virus and further culture for 7 days.
(§4) For the assessment of compounds against the wild type (WT; R5; clones = 94US3393IN [B subtype] and 98USMSC5016 [C subtype]) and drug-resistant (clones = 4755−5 and A17) HIV-1 clinical isolates, PHA-P stimulated cells from at least two normal donors were pooled, diluted in fresh media, and plated in the interior wells of a 96-well round-bottom microplate. Pooling PBMCs from more than one donor was used to minimize the variability observed between the individual donors, which results from the quantitative and qualitative differences in HIV infection and overall response to the PHA and IL-2 of primary lymphocyte populations. Each plate contained virus/cell control wells (cells + virus), experimental wells (drug + cells + virus), and compound control wells (drug + media, no cells, necessary for MTS monitoring of cytotoxicity). Test drug dilutions were prepared in microtiter tubes, and each concentration was placed in appropriate wells. Following the addition of the drug dilutions to the PBMCs, a predetermined dilution of virus stock was then placed in each test well (final MOI ≅ 0.1). Because HIV-1 is not cytopathic to PBMCs, the same assay plate can be used for both the antiviral efficacy and cytotoxicity measurements. Compounds were incubated with virus and cells in a 96-well format for 6 h. The cells were then washed by removing 75% of the medium (150 μL) and replacing it with 150 μL of fresh (no drug) medium. The plates were then centrifuged (∼200 g) for 10 min, after which 150 μL of the medium was removed, and an additional 150 μL of fresh medium was added to each well and further incubated for 6 days or until peak reverse transcriptase (RT) activity was detected. A microtiter plate-based RT reaction was utilized. Incorporated radioactivity (counts per minute, CPM) was quantified using standard liquid scintillation techniques. Compound IC50 (50%, inhibition of virus replication) was calculated using statistical software and regression analysis. A cellular uptake study was conducted for fluorescence conjugates 23 and 24 using a previously published procedure with minor modifications. All of the experiments were conducted in triplicate.

[12] = system: HIV-1 98USMSC5016 (C-Wild Type); test: PBMC multi-round infection assay, clinical isolate 98USMSC5016; format: cell-based; settings: Human immunodeficiency virus 1
Protocol: as §3, §4

[13] = system: HIV-1 94US3393IN (B-Wild Type); test: PBMC multi-round infection assay, clinical isolate 94US3393IN; format: cell-based; settings: Human immunodeficiency virus 1
Protocol: as §3, §4

[14] = system: HIV-1 A-17 MDR (B-NNRTI); test: PBMC multi-round infection assay, resistant isolate A-17; format: cell-based
Protocol: as §3, §4

[15] = Table 2, MTS, 50% effective concentration
[16] = read-out: (CA) EC50, Table 2, cell-associated transmission assay (IIIB)
[17] = Human immunodeficiency virus 1, IIIB, read-out: (X4) EC50, Table 2, single-round infection assay
[18] = Human immunodeficiency virus 1, PBMC

For 5(6)-carboxyfluorescein [FAM], the viable cells [1] was “at least 80%” and the “cell fluorescence (real time fluorescence microscopy)” value [2] was “no significant fluorescence”.

In the case of CCSCCCCCCCCCCCC(=O)O [12-thioethyldodecanoic acid], the EC50 [3] is given as 9.4 µM.

In the case of CCCCCCCCCCCCCC(=O)OC[C@H]1O[C@@H](n2cc(C)c(=O)[nH]c2=O)C[C@@H]1F [Compound 6, 5′-O-(myristoyl)-3′-fluoro-2′,3′-dideoxythymidine], the EC50 [4, 15] is reported as 606 µM, the EC50 ([4]; Table 3, conjugates vs physical mixtures) is reported as 606 µM and the EC50 [5, 16] is reported as 6.4 µM. It also gave an EC50 ([5]; read-out: (CA) EC50, Table 3, cell-to-cell transmission assay (IIIB)) of 6.4 µM, an EC50 [6, 17] of at most 1000 nM and an EC50 ([6]; Human immunodeficiency virus 1, IIIB, read-out: (X4) EC50, Table 3, viral entry inhibition assay) of 700 nM. The “effect on sperm viability” value [7] was “did not alter vaginal cell and sperm viability”, the “cytotoxicity to vaginal cells” value [8] was “did not show significant cytotoxic effects” and the EC50 ([9]; read-out: (R5) EC50, Table 2, single-round infection assay) was at most 1000 nM. The EC50 ([9]; read-out: (R5) EC50, Table 3, viral entry inhibition assay) was 1100 nM, the “anti-HIV activity (in words)” value [10] was “significant anti-HIV activity at noncytotoxic concentrations” and the “antiviral index, times better than AZT” value [10] was over 30 times. The “antiviral index, times better than FLT” value [10] was over 4 times.

CCSCCCCCCCCCCCC(=O)OC[C@H]1O[C@@H](n2cc(C)c(=O)[nH]c2=O)C[C@@H]1F [Compound 8, 3′-fluoro-2′,3′-dideoxy-5′-O-(12-thioethyldodecanoyl)thymidine] gave an EC50 [4, 15] of over 2000 µM, an EC50 [5, 16] of 2.3 µM and an EC50 [6, 17] of at most 1000 nM. It also gave an EC50 ([6]; read-out: (X4) EC50, Table 2, single-round infection assay) of 1000 nM, an IC50 [11, 18] of 112 nM and an IC90 [11, 18] of 662 nM. For the same compound, the “fold more potent than FLT against 4755-5” value ([11]; versus FLT IC50) was “equally active”, the “effect on sperm viability” value [7] was “did not alter vaginal cell and sperm viability” and the “cytotoxicity to vaginal cells” value [8] was “did not show significant cytotoxic effects”. For the same compound, the IC50 [12] was 1 nM, the IC90 [12] was 8.2 nM and the IC50 [13] was 0.6 nM. For the same compound, the IC90 [13] was 10.3 nM, the IC50 [14, 18] was 13.6 nM and the IC90 [14, 18] was 45.7 nM. The “fold more potent than FLT against A-17” value ([14]; versus FLT IC50) was “twice as active”, the “anti-HIV activity (in words)” value [10] was “significant anti-HIV activity at noncytotoxic concentrations” and the “antiviral index, times better than AZT” value [10] was over 30 times. For the same compound, the “antiviral index, times better than FLT” value [10] was over 4 times.

— article PMC9143043, “Synthesis and Biological Evaluation of 5′-O-Fatty Acyl Ester Derivatives of 3′-Fluoro-2′,3′-dideoxythymidine as Potential Anti-HIV Microbicides” (Molecules, 2022)
